Assays:
JAK2 = JAK2 (Homo sapiens (Human), UniProt O60674); assay: Biochemical JAK kinase assay (LanthaScreen), JAK2; conditions: for Ki: read-out: JAK2 pKi (converted)
How it was run: (§1)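 LanthaScreen format: phospho-STAT1 (pTyr701) detected with 2 nM Tb antibody after 10 mM EDTA quench. Kinase step used Km-level ATP and 200 nM STAT1 peptide, 1 h at ambient after 1 h pre-incubation. Inhibition fitted to IC50, reported as pKi.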

JAK1 = JAK1 (Homo sapiens (Human), UniProt P23458); assay: Biochemical JAK kinase assay (LanthaScreen), JAK1; conditions: for Ki: read-out: JAK1 pKi (converted)
Chain of JAK1 (P23458 whole entry): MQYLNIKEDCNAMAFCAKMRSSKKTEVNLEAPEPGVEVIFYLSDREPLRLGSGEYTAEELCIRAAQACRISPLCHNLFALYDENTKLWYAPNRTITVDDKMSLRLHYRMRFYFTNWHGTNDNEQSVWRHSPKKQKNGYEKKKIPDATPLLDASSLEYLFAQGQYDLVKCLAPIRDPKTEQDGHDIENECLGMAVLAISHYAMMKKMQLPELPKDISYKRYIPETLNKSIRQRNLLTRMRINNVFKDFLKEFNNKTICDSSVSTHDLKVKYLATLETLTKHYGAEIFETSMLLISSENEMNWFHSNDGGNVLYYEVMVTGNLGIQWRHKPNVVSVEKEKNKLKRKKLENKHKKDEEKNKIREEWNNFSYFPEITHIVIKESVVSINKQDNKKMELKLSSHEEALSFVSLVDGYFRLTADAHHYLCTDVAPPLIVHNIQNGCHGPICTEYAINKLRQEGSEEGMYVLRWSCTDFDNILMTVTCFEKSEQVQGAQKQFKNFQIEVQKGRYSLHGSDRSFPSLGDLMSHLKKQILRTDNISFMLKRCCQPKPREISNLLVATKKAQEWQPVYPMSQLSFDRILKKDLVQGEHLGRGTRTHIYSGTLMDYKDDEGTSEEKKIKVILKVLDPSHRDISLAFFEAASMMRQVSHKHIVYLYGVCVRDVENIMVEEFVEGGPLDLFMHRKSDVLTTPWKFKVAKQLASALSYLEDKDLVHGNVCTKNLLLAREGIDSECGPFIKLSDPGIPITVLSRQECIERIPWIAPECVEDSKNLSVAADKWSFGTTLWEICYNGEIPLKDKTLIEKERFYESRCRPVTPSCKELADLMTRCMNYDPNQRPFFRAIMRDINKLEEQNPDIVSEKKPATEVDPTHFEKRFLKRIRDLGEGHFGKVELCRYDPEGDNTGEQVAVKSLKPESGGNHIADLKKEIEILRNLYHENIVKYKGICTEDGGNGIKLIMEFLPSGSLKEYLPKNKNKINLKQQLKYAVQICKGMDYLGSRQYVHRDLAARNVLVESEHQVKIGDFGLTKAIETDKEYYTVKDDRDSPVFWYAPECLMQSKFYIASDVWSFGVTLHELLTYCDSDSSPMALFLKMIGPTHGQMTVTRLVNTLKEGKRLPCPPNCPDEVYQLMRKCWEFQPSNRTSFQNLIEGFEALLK
How it was run: as §1

[1] = test system: IL-13 induced STAT6 phosphorylation in BEAS-2B human lung epithelial cells; assay: Cellular JAKI potency assay (BEAS-2B); format: cell-based; conditions: Homo sapiens, BEAS-2B, BEAS-2B cells, read-out: BEAS2B pIC50 (converted)
How it was run: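 BEAS-2B cells were preincubated with compound (0.1% DMSO) in HBSS/HEPES/BSA for 1 h at 37 °C, then stimulated with IL-13 (80 ng/mL before addition) for 30 min. After lysis, pSTAT6 (Tyr641) was quantified by AlphaLISA SureFire; IC50 from a 4-parameter fit of percent inhibition, reported as pIC50.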

Chain of JAK2 (O60674 whole entry): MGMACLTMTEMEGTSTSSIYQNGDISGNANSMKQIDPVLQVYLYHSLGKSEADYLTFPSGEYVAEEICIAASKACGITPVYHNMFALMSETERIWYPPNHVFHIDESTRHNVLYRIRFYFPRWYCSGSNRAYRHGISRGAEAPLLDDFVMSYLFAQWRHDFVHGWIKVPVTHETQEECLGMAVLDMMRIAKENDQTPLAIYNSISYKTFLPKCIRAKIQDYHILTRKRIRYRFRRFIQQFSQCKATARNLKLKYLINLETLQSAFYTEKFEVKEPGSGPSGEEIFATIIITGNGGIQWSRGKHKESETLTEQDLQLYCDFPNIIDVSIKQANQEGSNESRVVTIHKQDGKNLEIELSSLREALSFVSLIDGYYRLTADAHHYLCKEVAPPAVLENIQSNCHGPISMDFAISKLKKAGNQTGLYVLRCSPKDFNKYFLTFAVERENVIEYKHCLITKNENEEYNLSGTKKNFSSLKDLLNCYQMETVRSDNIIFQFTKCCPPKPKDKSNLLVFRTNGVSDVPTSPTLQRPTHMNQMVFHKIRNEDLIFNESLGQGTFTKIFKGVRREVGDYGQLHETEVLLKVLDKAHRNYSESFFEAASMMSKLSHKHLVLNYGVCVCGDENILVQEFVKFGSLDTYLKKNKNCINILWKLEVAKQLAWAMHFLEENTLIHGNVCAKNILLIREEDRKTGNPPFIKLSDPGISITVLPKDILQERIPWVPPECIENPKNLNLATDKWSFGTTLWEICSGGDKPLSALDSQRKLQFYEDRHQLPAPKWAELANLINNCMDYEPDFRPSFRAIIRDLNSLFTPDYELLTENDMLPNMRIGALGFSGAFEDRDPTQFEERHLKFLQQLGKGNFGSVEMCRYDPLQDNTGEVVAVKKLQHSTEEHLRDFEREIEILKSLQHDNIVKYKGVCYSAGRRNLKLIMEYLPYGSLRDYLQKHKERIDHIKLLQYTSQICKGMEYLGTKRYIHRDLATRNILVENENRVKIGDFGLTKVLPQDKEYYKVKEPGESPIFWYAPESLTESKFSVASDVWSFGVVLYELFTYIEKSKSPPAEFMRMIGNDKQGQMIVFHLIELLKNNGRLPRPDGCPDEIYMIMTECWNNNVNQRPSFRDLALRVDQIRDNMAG

Question: With CCc1cc(O)ccc1-c1ccc2c(-c3nc(C4=CCNC(C(C)(C)C)C4)c[nH]3)n[nH]c2c1 (stereo not drawn) [Example 356] as the compound, how does the Ki (JAK2) read?
Answer: 0.1 to 1 nM

Question: And the Ki (JAK1)?
Answer: 0.1 to 1 nM

Question: What about the IC50 [1] of the same compound?
Answer: 31.6 to 100 nM

Question: Which results are given for Oc1ccc(-c2ccc3c(-c4nc(C5=CCNC5)c[nH]4)n[nH]c3c2F)c(CC(F)(F)F)c1 [Example 357]?
Answer: Ki (JAK2): 0.1 to 1 nM; Ki (JAK1): 0.1 to 1 nM; IC50 [1]: 31.6 to 100 nM

Question: How did the Ki (JAK2) turn out when CCc1cc(O)ccc1-c1ccc2c(-c3nc(C4=CC5CNCCN5CC4)c[nH]3)n[nH]c2c1F (stereo not drawn) [Example 358] was run?
Answer: 0.1 to 1 nM

Question: What about the Ki (JAK1) of the same compound?
Answer: 0.1 to 1 nM

Question: What about the IC50 [1] of the same compound?
Answer: 31.6 to 100 nM

Question: For CCc1cc(O)ccc1-c1ccc2c(-c3nc(C4=CCN([C@H]5CC[C@@](O)(C(F)(F)F)CC5)C4)c[nH]3)n[nH]c2c1F [Example 359], which Ki (JAK2) is on record?
Answer: 0.1 to 1 nM

Question: What about the Ki (JAK1) of the same compound?
Answer: 1 to 10 nM

Question: And the IC50 [1]?
Answer: 31.6 to 100 nM

Question: Which “JAK2 pKi” value (JAK2) does the source give for CCc1cc(O)ccc1-c1ccc2c(-c3nc(C4=C[C@H](CC(=O)N5CCCC5)NC4)c[nH]3)n[nH]c2c1F [Example 360] here?
Answer: A (A represents a pKi value ≥10 (Ki≤0.1 nM))

Question: What about the “JAK1 pKi” value (JAK1) of the same compound?
Answer: A (A represents a pKi value ≥10 (Ki≤0.1 nM))

Question: What about the IC50 [1] of the same compound?
Answer: 31.6 to 100 nM

Question: How did the “JAK2 pKi” value (JAK2) turn out when CCc1cc(O)ccc1-c1ccc2c(-c3nc(C4=C[C@H](CC(=O)N5CCOCC5)NC4)c[nH]3)n[nH]c2c1F [Example 361] was run?
Answer: A (A represents a pKi value ≥10 (Ki≤0.1 nM))

Question: And the Ki (JAK1)?
Answer: 0.1 to 1 nM

Question: And the IC50 [1]?
Answer: 31.6 to 100 nM

Question: Which results are given for CCc1cc(O)ccc1-c1ccc2c(-c3nc(C4=CCN(C(=O)CNCCOC)C4)c[nH]3)n[nH]c2c1F [Example 362]?
Answer: JAK2 pKi (JAK2): A (A represents a pKi value ≥10 (Ki≤0.1 nM)); Ki (JAK1): 0.1 to 1 nM; IC50 [1]: 31.6 to 100 nM

Question: What does the source list for CCc1cc(O)ccc1-c1ccc2c(-c3nc(C4=CCN(C(=O)CCN(C)C)C4)c[nH]3)n[nH]c2c1F [Example 363]?
Answer: JAK2 pKi (JAK2): A (A represents a pKi value ≥10 (Ki≤0.1 nM)); Ki (JAK1): 0.1 to 1 nM; IC50 [1]: 31.6 to 100 nM

Question: Which results are given for CCc1cc(O)ccc1-c1ccc2c(-c3nc(C4=CCN(C(=O)CN(CCO)CCO)C4)c[nH]3)n[nH]c2c1F [Example 364]?
Answer: JAK2 pKi (JAK2): A (A represents a pKi value ≥10 (Ki≤0.1 nM)); Ki (JAK1): 0.1 to 1 nM; IC50 [1]: 31.6 to 100 nM

Question: How did the “JAK2 pKi” value (JAK2) turn out when CCc1cc(O)ccc1-c1ccc2c(-c3nc(C4=CCN(C(=O)CN5CCN(C)CC5)C4)c[nH]3)n[nH]c2c1F [Example 365] was run?
Answer: A (A represents a pKi value ≥10 (Ki≤0.1 nM))

Question: What about the Ki (JAK1) of the same compound?
Answer: 0.1 to 1 nM

Question: What about the IC50 [1] of the same compound?
Answer: 31.6 to 100 nM

Question: With CCc1cc(O)ccc1-c1ccc2c(-c3nc(C4=CCNC(C(C)C)C4)c[nH]3)n[nH]c2c1F (stereo not drawn) [Example 368] as the compound, how does the Ki (JAK2) read?
Answer: 0.1 to 1 nM

Question: And the Ki (JAK1)?
Answer: 0.1 to 1 nM

Question: And the IC50 [1]?
Answer: 31.6 to 100 nM

Question: How did the Ki (JAK2) turn out when Oc1ccc(-c2ccc3c(-c4nc(C5=CCNCC5)c[nH]4)n[nH]c3c2)c(CC(F)(F)F)c1 [Example 369] was run?
Answer: 0.1 to 1 nM

Question: What about the Ki (JAK1) of the same compound?
Answer: 0.1 to 1 nM

Question: What about the IC50 [1] of the same compound?
Answer: 31.6 to 100 nM

Question: CCc1cc(O)ccc1-c1ccc2c(-c3nc(C4=CCNC(C(C)(C)C)C4)c[nH]3)n[nH]c2c1F (stereo not drawn) [Example 370] was tested. Which Ki (JAK2) did it give?
Answer: 0.1 to 1 nM

Question: And the Ki (JAK1)?
Answer: 1 to 10 nM

Question: What about the IC50 [1] of the same compound?
Answer: 31.6 to 100 nM

Question: What does the source list for CCc1cc(O)c(C)cc1-c1ccc2c(-c3nc(C4=CCNCC4)c[nH]3)n[nH]c2c1F [Example 371]?
Answer: Ki (JAK2): 1 to 10 nM; Ki (JAK1): 1 to 10 nM; IC50 [1]: 31.6 to 100 nM

Question: CCc1cc(O)ccc1-c1ccc2c(-c3nc(C4=CC(c5ccccc5)NC4)c[nH]3)n[nH]c2c1F (stereo not drawn) [Example 372] was tested. Which Ki (JAK2) did it give?
Answer: 1 to 10 nM

Question: And the Ki (JAK1)?
Answer: 1 to 10 nM

Question: What about the IC50 [1] of the same compound?
Answer: 31.6 to 100 nM

Question: Which results are given for CCc1cc(O)ccc1-c1ccc2c(-c3nc(C4=C[C@H](CC(=O)N5CCN(C)CC5)NC4)c[nH]3)n[nH]c2c1F [Example 373]?
Answer: JAK2 pKi (JAK2): A (A represents a pKi value ≥10 (Ki≤0.1 nM)); Ki (JAK1): 0.1 to 1 nM; IC50 [1]: 31.6 to 100 nM

Question: Which results are given for CCc1cc(O)ccc1-c1ccc2c(-c3nc(C4=CCN(C(=O)COCCN(C)C)C4)c[nH]3)n[nH]c2c1F [Example 374]?
Answer: JAK2 pKi (JAK2): A (A represents a pKi value ≥10 (Ki≤0.1 nM)); Ki (JAK1): 0.1 to 1 nM; IC50 [1]: 31.6 to 100 nM

Question: Which results are given for CCc1cc(O)ccc1-c1ccc2c(-c3nc(C4=CCN(C(=O)[C@H](COC)NC)C4)c[nH]3)n[nH]c2c1F [Example 375]?
Answer: JAK2 pKi (JAK2): A (A represents a pKi value ≥10 (Ki≤0.1 nM)); Ki (JAK1): 0.1 to 1 nM; IC50 [1]: 31.6 to 100 nM

Question: Which Ki (JAK2) does the source give for CCc1cc(O)ccc1-c1ccc2c(-c3nc(C4=CCNC(C)(C)C4)c[nH]3)n[nH]c2c1 [Example 376] here?
Answer: 0.1 to 1 nM

Question: And the Ki (JAK1)?
Answer: 0.1 to 1 nM

Question: What about the IC50 [1] of the same compound?
Answer: 31.6 to 100 nM

Reference: patent publication US20240092758A1, “IMIDAZOLO INDAZOLE COMPOUNDS AS JAK INHIBITORS” (Theravance Biopharma R&D IP, LLC, priority 2021, published 2024)
